Entries after “also recorded” stand apart in the source; their conditions may differ. Values belong to the compound of their own block, whether it stands above or below them.
Assays:
[1] = target: KV4.2 (Homo sapiens, UniProt Q9NZV8); assay: Selectivity, HiClamp Xenopus laevis heterologous expression system, KV4.2; assay type: cell-based; details: 10 µM, oocytes
Protocol: (§1) Ion channels (Kv1.x, Kv2.1, Kv4.2, Kv10.1) were expressed in Xenopus laevis oocytes by linearization of the plasmids and subsequent in vitro transcription using a commercial T7 or SP6 mMESSAGE mMACHINE transcription kit (Ambion, Carlsbad, California, USA). Defolliculated Xenopus oocytes were then injected with 20–50 nL of the cRNA at a concentration of 1 ng/nL using a micro-injector (Drummond Scientific1, Broomall, PA, USA). The oocytes were incubated in a solution containing (in mM): NaCl, 96; KCl, 2; CaCl2, 1.8; MgCl2, 2 and HEPES, 5 (pH 7.5), supplemented with 50 mg/L gentamycin sulfate and 90 mg/L theophylline. […]
(§2) Two-electrode voltage-clamp recordings were performed at room temperature (18–22 °C) using a Geneclamp 500 amplifier (Molecular Devices, San Jose, CA, USA) and pClamp data acquisition (Axon Instruments, Union City, CA, USA) and using an integrated digital TEVC amplifier controlled by HiClamp, an automated Voltage-Clamp Screening System (Multi Channel Systems MCS GmbH, Reutlingen, Germany). Whole-cell currents from oocytes were recorded 1–4 days after injection. […]
(§3) For the electrophysiological analysis of the compounds, a number of protocols were applied from a holding potential of −90 mV. […] The concentration dependency of all compounds was assessed by measuring the current inhibition in the presence of increasing compound concentrations. […]

[2] = system: Panc-1 tumor spheroids; assay: Apoptosis (caspase 3/7 activity) in Panc-1 tumor spheroids; assay type: cell-based; details: with 8.9 µM cycloheximide
Protocol: (§4) Cell lines Panc-1 (ACC 783) and Colo-357 (CVCL_0221) were obtained through the validated collection of the pHioniC consortium (MSC-ITN 813834). Both cell lines were grown in RPMI1640, supplemented with 1 mM sodium pyruvate and 1% Glutamax (all Gibco Thermo-Fisher, Waltham, MA USA) 10%FBS (BioChrom, Berlin, Germany), at 5% CO2 and 37 °C in a humidified atmosphere.
(§5) Spheroids were cultured in round bottom ultra-low attachment 96-well plates (Corning). The optimal seeding densities were empirically determined (8000 cells/well for Colo-357 or 10,000 cells/well for Panc-1 spheroids. The cells were suspended in 2% Matrigel (Corning), centrifuged at 1000× g for 10 min and the spheroids were allowed to form in the incubator. Once the spheroids were formed, the treatments indicated together with 8.9 µM cycloheximide (as apoptosis sensitizer) were added and apoptosis was determined by live imaging in the Incucyte system in real time for approximately 60 h using Caspase-3/7 green reagent (Sartorius) as a reporter of apoptosis, which crosses the cell membrane and is cleaved by the activated Caspase-3/7, resulting in the fluorescent staining of nuclear DNA. Apoptosis on Panc-1 tumor spheroids is presented as integrated green fluorescence in the whole spheroid.

[3] = target: KV10.1 (Homo sapiens, UniProt O95259); assay: Selectivity, HiClamp Xenopus laevis heterologous expression system, KV10.1; assay type: cell-based; details: 10 µM; HiClamp, oocytes
Protocol: as §1, §2, §3

[4] = target: KV1.1 (Rattus norvegicus, UniProt P10499); assay: Selectivity, HiClamp Xenopus laevis heterologous expression system, KV1.1; assay type: cell-based; details: 10 µM; HiClamp, oocytes
Protocol: (§6) Ion channels (Kv1.x, Kv2.1, Kv4.2, Kv10.1) were expressed in Xenopus laevis oocytes by linearization of the plasmids and subsequent in vitro transcription using a commercial T7 or SP6 mMESSAGE mMACHINE transcription kit (Ambion, Carlsbad, California, USA). Defolliculated Xenopus oocytes were then injected with 20–50 nL of the cRNA at a concentration of 1 ng/nL using a micro-injector (Drummond Scientific1, Broomall, PA, USA). The oocytes were incubated in a solution containing (in mM): NaCl, 96; KCl, 2; CaCl2, 1.8; MgCl2, 2 and HEPES, 5 (pH 7.5), supplemented with 50 mg/L gentamycin sulfate and 90 mg/L theophylline. After ex vivo translation, the ion channels were correctly inserted in the cell membrane of the oocytes.
(§7) Two-electrode voltage-clamp recordings were performed at room temperature (18–22 °C) using a Geneclamp 500 amplifier (Molecular Devices, San Jose, CA, USA) and pClamp data acquisition (Axon Instruments, Union City, CA, USA) and using an integrated digital TEVC amplifier controlled by HiClamp, an automated Voltage-Clamp Screening System (Multi Channel Systems MCS GmbH, Reutlingen, Germany). Whole-cell currents from oocytes were recorded 1–4 days after injection. The bath solution composition was ND96 (in mM): NaCl, 96; KCl, 2; CaCl2, 1.8; MgCl2, 2 and HEPES, 5 (pH 7.5). Voltage and current electrodes were filled with a 3 M solution of KCl in H2O. Resistances of both electrodes were kept between 0.5 and 1.5 MΩ. The elicited Kv1.x, Kv2.1, Kv4.2 and Kv10.1 currents were filtered at 0.5 kHz and sampled at 2 kHz using a four-pole low-pass Bessel filter. Leak subtraction was performed using a P/4 protocol.
(§8) For the electrophysiological analysis of the compounds, a number of protocols were applied from a holding potential of −90 mV. Currents for Kv1.x, Kv2.1, Kv4.2 and Kv10.1 were evoked by 1 s depolarizing pulses either to 0 mV or to a range of voltage steps between −80 mV and +40 mV. For the analysis of the data, only the inhibition at the 0 mV step was used. The concentration dependency of all compounds was assessed by measuring the current inhibition in the presence of increasing compound concentrations. […] From this stock solution, adequate dilutions with a maximum of 0.5% DMSO were made for testing.
(§9) All electrophysiological data (Figure S1) are presented as means ± S.E.M of n ≥ three independent experiments unless otherwise indicated. All data were analyzed using pClamp Clampfit 10.4 (Molecular Devices, Downingtown, PA, USA), OriginPro 9 (Originlab, Northampton, MA, USA), GraphPad Prism 8 software (GraphPad Software, Inc., San Diego, CA, USA) and DataMining (Multi Channel Systems MCS GmbH, Reutlingen, Germany). The Dunnett test and one-way ANOVA were performed to calculate the significance of the induced inhibition compared to the control.

[5] = system: cancer cells (human SAOS2, mouse B16F10 melanoma, and human B-CLL); details: PAP-1 20 µM, clofazimine 1 or 10 µM, with MDRi cyclosporine H (4 µM) and probenecid (100 µM); cited from earlier work
[6] = target: KV1.4 (Homo sapiens, UniProt P22459); assay: Selectivity, HiClamp Xenopus laevis heterologous expression system, KV1.4; assay type: cell-based; details: 10 µM; HiClamp, oocytes
Protocol: as §6
as §7, with “Resistances of both electrodes were kept between 0.5 and 1.5 MΩ. The elicited Kv1.x, Kv2.1, Kv4.2 and Kv10.1 currents were filtered at 0.5 kHz and sampled at 2 kHz using a four-pole low-pass Bessel filter. Leak subtraction was performed using a P/4 protocol.” left out
as §3
as §9, with “The Dunnett test and one-way ANOVA were performed to calculate the significance of the induced inhibition compared to the control.” left out

[7] = target: KV1.2 (Homo sapiens, UniProt P16389); assay: Selectivity, HiClamp Xenopus laevis heterologous expression system, KV1.2; assay type: cell-based; details: 10 µM; HiClamp, oocytes
Protocol: as §6, §7, §8, §9

[8] = target: T1, KV2.1 (Homo sapiens, UniProt Q14721); assay: Selectivity, HiClamp Xenopus laevis heterologous expression system, KV2.1; assay type: cell-based; details: 10 µM; HiClamp, oocytes
T1 sequence (Q14721 1-858): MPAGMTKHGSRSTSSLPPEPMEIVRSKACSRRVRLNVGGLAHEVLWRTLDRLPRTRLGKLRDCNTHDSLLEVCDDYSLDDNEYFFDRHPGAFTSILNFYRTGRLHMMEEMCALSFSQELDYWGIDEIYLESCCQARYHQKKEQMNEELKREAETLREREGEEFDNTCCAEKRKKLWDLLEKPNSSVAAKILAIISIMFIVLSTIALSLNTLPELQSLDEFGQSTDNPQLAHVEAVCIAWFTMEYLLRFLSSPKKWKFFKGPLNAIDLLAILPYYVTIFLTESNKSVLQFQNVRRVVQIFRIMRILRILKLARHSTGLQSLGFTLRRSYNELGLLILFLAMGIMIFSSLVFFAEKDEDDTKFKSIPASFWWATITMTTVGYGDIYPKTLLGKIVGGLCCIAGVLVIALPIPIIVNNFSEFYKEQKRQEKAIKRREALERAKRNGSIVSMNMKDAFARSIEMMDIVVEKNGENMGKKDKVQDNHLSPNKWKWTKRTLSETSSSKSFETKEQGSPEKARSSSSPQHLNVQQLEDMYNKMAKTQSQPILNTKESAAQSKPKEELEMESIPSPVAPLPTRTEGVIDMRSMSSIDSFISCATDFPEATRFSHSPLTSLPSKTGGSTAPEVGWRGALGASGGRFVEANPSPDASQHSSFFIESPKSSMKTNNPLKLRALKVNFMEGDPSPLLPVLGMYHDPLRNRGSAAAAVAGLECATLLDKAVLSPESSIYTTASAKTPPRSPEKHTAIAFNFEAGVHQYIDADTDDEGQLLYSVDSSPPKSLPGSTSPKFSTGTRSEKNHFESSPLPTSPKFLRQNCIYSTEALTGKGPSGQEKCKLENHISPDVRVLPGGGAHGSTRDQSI
Protocol: as §6
as §7, with “Resistances of both electrodes were kept between 0.5 and 1.5 MΩ. The elicited Kv1.x, Kv2.1, Kv4.2 and Kv10.1 currents were filtered at 0.5 kHz and sampled at 2 kHz using a four-pole low-pass Bessel filter. Leak subtraction was performed using a P/4 protocol.” left out
as §3
as §9, with “The Dunnett test and one-way ANOVA were performed to calculate the significance of the induced inhibition compared to the control.” left out

[9] = target: KV1.5 (Homo sapiens, UniProt P22460); assay: Selectivity, HiClamp Xenopus laevis heterologous expression system, KV1.5; assay type: cell-based; details: 10 µM; HiClamp, oocytes
Protocol: as §6, §7, §8, §9

[10] = target: KV1.6 (Homo sapiens, UniProt P17658); assay: Selectivity, HiClamp Xenopus laevis heterologous expression system, KV1.6; assay type: cell-based; details: 10 µM; HiClamp, oocytes
Protocol: as §6, §7, §8, §9

[11] = system: Colo-357 tumor spheroids; assay: Apoptosis (caspase 3/7 activity) in Colo-357 tumor spheroids; assay type: cell-based; details: with 8.9 µM cycloheximide, up to 100 µM
Protocol: as §4, §5

[12] = system: other KV1.x family channels or more distantly related channels; parameters: method as in PMID 32199306; details: cited from earlier work
[13] = Turbidimetric solubility assay; assay type: physicochemical
Protocol: For the phosphate-buffered saline, we dissolved 2.38 g of disodium hydrogen phosphate dodecahydrate, 0.19 g of potassium dihydrogen phosphate, and 8.0 g of sodium chloride in water and diluted it to 1000 mL with the same solvent. Then we adjusted the pH to 7.4. The stock DMSO solutions of the compounds were prepared at concentrations of 50 mM, 20 mM, 10 mM, and 1 mM. The final solutions (500 µM, 200 µM, 100 µM, and 10 µM) were prepared by adding 2 µL of the stock DMSO solution to 198 µL of phosphate-buffered saline. The absorbance (area scan) was measured at 620 nm for sample volume of 200 µL and the appearance of the solutions was checked by visual inspection.

[14] = target: KV1.3 (Homo sapiens, UniProt P22001); parameters: method as in PMID 32199306; details: applied ex vivo to Kv1.3 expressing oocytes; read-out: IC50 KV1.3 (previous work); cited from earlier work
[15] = system: Colo-357; parameters: method as in PMID 29034212; details: read-out: EC50 cell death; cited from earlier work
[16] = system: pancreatic ductal adenocarcinoma (PDAC) cell lines; details: cited from earlier work
[17] = system: orthotopic PDAC xenotransplantation model; details: orthotopic PDAC xenotransplantation model in SCID beige mice; cited from earlier work
[18] = system: KV1.1, KV1.2, KV1.5 and KV3.1; parameters: method as in PMID 19104661; details: cited from earlier work
[19] = system: Panc-1 cell line; parameters: method as in PMID 29034212; details: Panc-1; 20 µM; cited from earlier work

Sequence of KV10.1 (O95259 whole entry): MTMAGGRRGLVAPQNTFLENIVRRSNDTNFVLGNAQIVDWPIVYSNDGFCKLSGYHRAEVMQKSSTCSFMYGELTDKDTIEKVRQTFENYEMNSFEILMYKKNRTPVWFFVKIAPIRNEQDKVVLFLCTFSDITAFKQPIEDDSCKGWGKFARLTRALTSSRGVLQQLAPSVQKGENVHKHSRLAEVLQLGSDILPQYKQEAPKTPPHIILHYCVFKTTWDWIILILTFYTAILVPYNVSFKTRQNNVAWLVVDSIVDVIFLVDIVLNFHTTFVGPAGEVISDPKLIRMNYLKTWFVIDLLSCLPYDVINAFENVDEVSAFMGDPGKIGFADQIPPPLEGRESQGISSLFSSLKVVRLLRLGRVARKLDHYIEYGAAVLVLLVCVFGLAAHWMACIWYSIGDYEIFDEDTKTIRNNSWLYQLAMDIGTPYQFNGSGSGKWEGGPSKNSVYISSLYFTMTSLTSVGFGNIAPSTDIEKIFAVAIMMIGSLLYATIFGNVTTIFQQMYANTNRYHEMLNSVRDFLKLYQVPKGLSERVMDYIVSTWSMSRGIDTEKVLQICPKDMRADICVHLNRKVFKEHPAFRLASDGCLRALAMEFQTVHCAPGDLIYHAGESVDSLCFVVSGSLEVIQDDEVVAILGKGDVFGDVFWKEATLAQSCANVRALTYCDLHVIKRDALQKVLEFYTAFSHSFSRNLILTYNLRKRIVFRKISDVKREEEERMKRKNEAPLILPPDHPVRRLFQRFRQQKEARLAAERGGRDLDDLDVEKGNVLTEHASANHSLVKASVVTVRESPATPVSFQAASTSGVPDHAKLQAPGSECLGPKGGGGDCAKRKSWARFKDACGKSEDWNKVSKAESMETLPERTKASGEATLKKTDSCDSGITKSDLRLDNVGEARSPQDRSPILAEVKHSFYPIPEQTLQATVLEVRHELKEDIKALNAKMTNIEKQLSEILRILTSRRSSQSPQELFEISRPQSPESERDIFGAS
Sequence of KV1.6 (P17658 whole entry): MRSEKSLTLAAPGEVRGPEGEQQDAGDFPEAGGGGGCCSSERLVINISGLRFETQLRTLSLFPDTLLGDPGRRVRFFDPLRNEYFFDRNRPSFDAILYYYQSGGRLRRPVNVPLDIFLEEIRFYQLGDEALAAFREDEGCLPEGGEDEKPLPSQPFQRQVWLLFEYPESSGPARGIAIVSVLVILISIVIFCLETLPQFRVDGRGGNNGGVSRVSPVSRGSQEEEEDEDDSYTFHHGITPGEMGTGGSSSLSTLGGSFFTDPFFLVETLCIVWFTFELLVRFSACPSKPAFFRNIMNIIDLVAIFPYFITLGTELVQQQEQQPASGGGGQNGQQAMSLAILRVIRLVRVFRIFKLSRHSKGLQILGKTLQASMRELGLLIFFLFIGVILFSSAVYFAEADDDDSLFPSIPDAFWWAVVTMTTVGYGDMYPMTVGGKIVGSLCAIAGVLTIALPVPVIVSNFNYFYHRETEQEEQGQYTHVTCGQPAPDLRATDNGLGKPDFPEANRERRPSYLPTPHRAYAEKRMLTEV
Sequence of KV1.5 (P22460 whole entry): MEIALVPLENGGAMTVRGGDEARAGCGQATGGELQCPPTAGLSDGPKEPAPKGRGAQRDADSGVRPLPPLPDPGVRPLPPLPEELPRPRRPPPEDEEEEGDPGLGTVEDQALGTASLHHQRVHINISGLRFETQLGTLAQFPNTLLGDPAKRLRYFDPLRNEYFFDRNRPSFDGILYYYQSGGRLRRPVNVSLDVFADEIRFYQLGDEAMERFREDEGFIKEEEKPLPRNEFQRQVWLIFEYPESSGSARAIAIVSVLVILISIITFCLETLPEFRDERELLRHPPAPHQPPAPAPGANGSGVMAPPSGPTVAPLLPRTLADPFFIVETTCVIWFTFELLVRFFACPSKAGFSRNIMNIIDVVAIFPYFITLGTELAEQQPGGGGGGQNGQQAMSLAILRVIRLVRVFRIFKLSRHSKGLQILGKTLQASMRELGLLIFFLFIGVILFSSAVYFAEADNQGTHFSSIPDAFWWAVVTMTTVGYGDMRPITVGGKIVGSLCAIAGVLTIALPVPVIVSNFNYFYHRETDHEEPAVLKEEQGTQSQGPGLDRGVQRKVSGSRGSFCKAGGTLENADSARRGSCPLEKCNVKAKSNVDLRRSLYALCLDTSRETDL
Sequence of KV1.3 (P22001 whole entry): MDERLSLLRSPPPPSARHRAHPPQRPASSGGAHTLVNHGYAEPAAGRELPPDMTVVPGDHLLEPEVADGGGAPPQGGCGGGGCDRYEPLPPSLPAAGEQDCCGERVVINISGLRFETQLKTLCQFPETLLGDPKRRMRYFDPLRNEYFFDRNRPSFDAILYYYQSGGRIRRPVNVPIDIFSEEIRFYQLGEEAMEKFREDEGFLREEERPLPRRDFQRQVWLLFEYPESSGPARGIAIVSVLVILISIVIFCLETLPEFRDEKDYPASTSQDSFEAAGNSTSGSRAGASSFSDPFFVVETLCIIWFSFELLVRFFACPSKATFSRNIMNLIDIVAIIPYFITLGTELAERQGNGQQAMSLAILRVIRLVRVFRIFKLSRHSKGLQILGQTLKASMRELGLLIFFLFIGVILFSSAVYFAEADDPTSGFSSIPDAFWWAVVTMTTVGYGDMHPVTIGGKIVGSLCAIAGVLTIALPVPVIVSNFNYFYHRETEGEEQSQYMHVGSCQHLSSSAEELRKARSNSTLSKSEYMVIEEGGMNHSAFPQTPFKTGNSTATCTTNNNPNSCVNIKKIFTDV
Sequence of KV1.2 (P16389 whole entry): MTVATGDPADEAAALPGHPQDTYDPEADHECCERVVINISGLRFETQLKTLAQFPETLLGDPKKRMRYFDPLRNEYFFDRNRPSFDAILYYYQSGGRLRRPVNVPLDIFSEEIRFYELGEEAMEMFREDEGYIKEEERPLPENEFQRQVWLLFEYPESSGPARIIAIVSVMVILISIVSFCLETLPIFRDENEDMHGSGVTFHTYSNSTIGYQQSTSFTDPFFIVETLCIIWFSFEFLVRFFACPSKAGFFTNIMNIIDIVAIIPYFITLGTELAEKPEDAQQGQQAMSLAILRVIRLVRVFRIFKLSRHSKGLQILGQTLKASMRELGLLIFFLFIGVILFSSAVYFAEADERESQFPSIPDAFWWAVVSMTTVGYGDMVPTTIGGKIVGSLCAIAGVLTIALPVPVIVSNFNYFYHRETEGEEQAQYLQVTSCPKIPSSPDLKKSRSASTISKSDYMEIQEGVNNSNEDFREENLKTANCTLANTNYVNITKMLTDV
Sequence of KV4.2 (Q9NZV8 whole entry): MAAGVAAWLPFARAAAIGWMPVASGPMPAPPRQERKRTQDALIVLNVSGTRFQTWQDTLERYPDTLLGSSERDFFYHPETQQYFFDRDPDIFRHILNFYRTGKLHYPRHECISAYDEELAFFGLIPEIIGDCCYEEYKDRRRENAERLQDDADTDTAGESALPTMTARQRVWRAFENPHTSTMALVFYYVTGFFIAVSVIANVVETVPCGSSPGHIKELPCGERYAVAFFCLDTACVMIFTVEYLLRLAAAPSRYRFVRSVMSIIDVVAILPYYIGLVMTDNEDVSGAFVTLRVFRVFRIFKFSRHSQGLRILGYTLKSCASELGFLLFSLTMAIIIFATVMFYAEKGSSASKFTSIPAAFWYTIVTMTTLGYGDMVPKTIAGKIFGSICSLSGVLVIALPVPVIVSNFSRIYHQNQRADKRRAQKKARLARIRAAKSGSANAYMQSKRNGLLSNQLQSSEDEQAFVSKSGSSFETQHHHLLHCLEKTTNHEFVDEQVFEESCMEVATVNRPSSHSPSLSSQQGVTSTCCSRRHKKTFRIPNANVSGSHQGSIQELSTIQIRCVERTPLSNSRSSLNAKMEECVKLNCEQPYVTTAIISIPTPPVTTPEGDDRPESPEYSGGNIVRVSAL
Sequence of KV1.4 (P22459 whole entry): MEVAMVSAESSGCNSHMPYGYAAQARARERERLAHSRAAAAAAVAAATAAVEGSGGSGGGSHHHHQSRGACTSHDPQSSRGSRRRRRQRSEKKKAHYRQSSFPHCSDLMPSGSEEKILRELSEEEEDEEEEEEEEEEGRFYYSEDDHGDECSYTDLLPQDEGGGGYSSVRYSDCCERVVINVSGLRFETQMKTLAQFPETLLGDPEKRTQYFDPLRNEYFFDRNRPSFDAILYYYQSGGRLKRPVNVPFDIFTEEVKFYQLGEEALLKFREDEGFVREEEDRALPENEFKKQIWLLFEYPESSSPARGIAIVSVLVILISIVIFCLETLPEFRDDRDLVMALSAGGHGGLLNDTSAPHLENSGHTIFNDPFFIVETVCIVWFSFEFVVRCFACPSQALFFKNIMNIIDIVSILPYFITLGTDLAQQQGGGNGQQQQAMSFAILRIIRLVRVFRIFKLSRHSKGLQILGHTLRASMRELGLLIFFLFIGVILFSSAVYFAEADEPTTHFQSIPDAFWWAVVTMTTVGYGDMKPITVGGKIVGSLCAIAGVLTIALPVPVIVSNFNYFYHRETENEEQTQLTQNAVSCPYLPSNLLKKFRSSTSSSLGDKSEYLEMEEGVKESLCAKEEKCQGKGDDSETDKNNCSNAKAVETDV
Sequence of KV1.1 (P10499 whole entry): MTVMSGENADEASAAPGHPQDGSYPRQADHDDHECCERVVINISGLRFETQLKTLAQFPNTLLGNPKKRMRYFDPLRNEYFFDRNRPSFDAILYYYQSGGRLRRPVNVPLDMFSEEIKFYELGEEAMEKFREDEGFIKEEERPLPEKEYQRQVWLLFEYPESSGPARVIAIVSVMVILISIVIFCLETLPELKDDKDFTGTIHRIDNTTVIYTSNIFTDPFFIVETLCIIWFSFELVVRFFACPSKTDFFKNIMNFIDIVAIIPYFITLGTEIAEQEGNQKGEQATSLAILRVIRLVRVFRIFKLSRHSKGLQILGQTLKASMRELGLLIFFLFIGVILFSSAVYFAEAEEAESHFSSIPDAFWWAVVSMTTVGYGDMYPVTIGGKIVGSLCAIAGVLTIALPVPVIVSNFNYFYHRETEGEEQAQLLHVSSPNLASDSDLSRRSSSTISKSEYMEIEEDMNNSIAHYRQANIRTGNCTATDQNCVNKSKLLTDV

Effect on KV4.2 channel [1]: no significant effects
Effect on KV10.1 channel [3]: no significant effects
Effect on KV1.1 channel [4]: no significant effects
Effect on KV1.4 channel [6]: no significant effects
Effect on KV1.2 channel [7]: no significant effects
Effect on KV2.1 channel [8]: no significant effects
Effect on KV1.5 channel [9]: no significant effects
Effect on KV1.6 channel [10]: no significant effects
SMILES: O=c1ccc2c(OCCCCOc3ccccc3)c3ccoc3cc2o1 [PAP-1 (1), PAP-1, reference compound]
Induction of apoptosis in Panc-1 spheroids [2]: did and induce significant apoptosis
Induction of apoptosis in cancer cells [5]: induced mild apoptosis

SMILES: COc1ccccc1C(=O)NCC1(c2ccsc2)CCCC1 [Compound 4]
Induction of apoptosis in Colo-357 spheroids [11]: significant induction of apoptosis; also recorded: induced a significant amount of apoptosis
Effect on other KV1.x family channels or more distantly related channels [12]: did not affect
absorbance at 620 nm ([13]; 10 µM in PBS with 1 % final DMSO): 0
absorbance at 620 nm ([13]; 100 µM in PBS with 1 % final DMSO): 0,035
absorbance at 620 nm ([13]; 200 µM in PBS with 1 % final DMSO): 0,127
absorbance at 620 nm ([13]; 500 µM in PBS with 1 % final DMSO): 0,189

SMILES: COc1ccccc1C(=O)NCC1(c2ccccc2)CCOCC1 [Compound 5]
IC50 [14]: 920 nM

SMILES: CC(C)/N=c1\cc2n(-c3ccc(Cl)cc3)c3ccccc3nc-2cc1Nc1ccc(Cl)cc1 [clofazimine (3), clofazimine]
EC50 [15]: 1500 nM
EC50 apoptosis in PDAC cell lines [16]: micromolar range
Induction of apoptosis in PDAC cell lines [16]: induced significant apoptosis
Induction of apoptosis in cancer cells [5]: induced mild apoptosis
Primary tumor weight [17]: significantly reduced
Potency on KV1.3 relative to KV1.1, KV1.2, KV1.5 and KV3.1 [18]: tenfold higher potency
cell death [19]: less than 30%

Source: paper PMC9179341, “Design of New Potent and Selective Thiophene-Based KV1.3 Inhibitors and Their Potential for Anticancer Activity” (Cancers, 2022)
